# Results from paper PMC5760651, “Peptidomimetic blockade of MYB in acute myeloid leukemia” (Nature Communications, 2018).
# Non-standard residues stand in square brackets, D forms with d. Residues, ends and D or L forms follow the SMILES beside them.
# Columns and labels:
# [1] = system: MV-411 cells; assay: MYB ChIP-seq; format: cell-based, human; settings: 20 µM, 6 h, 3 biological replicates
# Experimental: ChIP was performed as previously described. Briefly, cells were fixed in 1% formalin in phosphate-buffered saline (PBS) for 10 minutes at room temperature. Glycine (125 mM final concentration) and Tris-HCl pH 8 (100 mM final concentration) were added to the cells and cells were washed twice in ice-cold PBS and resuspended in sodium dodecyl sulfate (SDS) lysis buffer (1% SDS, 10 mM EDTA, 50 mM Tris–HCl, pH 8.1). Lysates were sonicated using the Covaris S220 adaptive focused sonicator to obtain 100–500 bp chromatin fragments (Covaris, Woburn, CA). Lysates containing sheared chromatin fragments were resuspended in 0.01% SDS, 1.1% Triton-X100, 1.2 mM EDTA, 16.7 mM Tris–HCl, pH 8.1,167 mM NaCl. Lysates and antibody-coupled beads were incubated over night at 4 °C. […] Libraries were sequenced on the Illumina HiSeq 2500 instruments, with 30 million 2 × 50 bp paired reads.
# For ChIP-seq analysis, reads were quality and adapter trimmed using ‘trim_galore’ before aligning to human genome assembly hg19 with bwa mem using the default parameters. Aligned reads with the same start position and orientation were collapsed to a single read before subsequent analysis. Density profiles were created by extending each read to the average library fragment size and then computing density using the BEDTools suite. Enriched regions were discovered using MACS 2.0 and scored against matched input libraries. […]
# [2] = system: MV-411 and MOLM-13 cells; assay: qRT-PCR of BCL2 mRNA expression; format: cell-based, human; settings: 20 μM, 6 h
# Experimental: RNA was isolated using Trizol reagent according to the manufacturer’s instructions (Life Technologies). Complementary DNA was synthesized using the SuperScript III First-Strand Synthesis system according to the manufacturer’s instructions (Invitrogen). Quantitative real-time PCR was performed using the KAPA SYBR FAST PCR polymerase with 20 ng template and 200 nM primers, according to the manufacturer’s instructions (Kapa Biosystems, Wilmington, MA, USA). PCR primers are listed in Supplementary Table 4. Ct values were calculated using ROX normalization using the ViiA 7 software (Applied Biosystems).
# [3] = target: T1, CBP KIX domain (Mus musculus, UniProt P45481); assay: Microscale thermophoresis binding of FITC-conjugated peptides to purified recombinant CBP KIX domain; settings: 50 mM sodium phosphate, 150 mM NaCl, 0.01% NP-40, pH 5.5, room temperature, ± standard error mean of three biological replicates
# T1 construct: Bacterial expression pGEX-KIX vector encoding the KIX domain of CBP; GST (N, cleaved yes); made in house; host or cells: E. coli BL21(DE3)
# Experimental: BL21(DE3) cells (Invitrogen) transformed with pGEX-KIX plasmid were induced at 37 °C with isopropyl β-D-1-thiogalactopyranoside for 3 h. Cells were lysed in 50 mM Tris–HCl pH 7.3, 150 mM NaCl, 0.1% Tween-20, 1 mM DTT, 5 mM EDTA, supplemented with protease inhibitors described above and sonicated for ten minutes (15 s on, 15 s off, 40% amplitude) using the Misonix probe sonicator (Qsonica, Newtown, CT). Lysate was cleared by centrifugation for 1 h at 21,800 × g at 4 °C. Cleared lysate was incubated with 4 ml glutathione agarose resin slurry (GoldBio) for 1 h at 4 °C to capture GST-KIX. Resin was washed four times with 50 mM Tris–HCl pH 7.4, 150 mM NaCl. KIX domain was cleaved from GST by incubation of resin-bound GST-KIX with 160 U thrombin (GE Healthcare) overnight at room temperature. Resin was centrifuged at 500 × g for 5 min. […] Cleaved KIX was purified using a linear gradient of 50 mM to 1 M NaCl by cation exchange chromatography using MonoS 5/50 GL column (GE Healthcare). […] Binding of purified recombinant KIX with FITC-conjugated peptides was measured using Monolith NT.115 (NanoTemper Technologies). Assays were conducted in 50 mM sodium phosphate, 150 mM NaCl, 0.01% NP-40, pH 5.5. […] MST measurements were recorded at room temperature for 10 s per capillary using fixed IR-laser power of 80% and LED excitation power of 40–50%.
# [4] = system: MOLM-13 cells; assay: RNA-seq transcriptome profiling; format: cell-based, human; settings: MOLM13 cells, 20 µM, 6 h
# Experimental: Reads were quality and adapter trimmed using “trim_galore” before aligning to human assembly hg19 with STAR v2.5 using the default parameters. Coverage and post-alignment quality were assessed using the Picard tool CollectRNASeqMetrics (http://broadinstitute.github.io/picard/). Read count tables were created using HTSeq v0.6.1. Normalization and expression dynamics were evaluated with DESeq2 using the default parameters.
# [5] = system: MV-411 cells; assay: Growth and survival of MV-411 cells with ectopic BCL2 (MIG-BCL2) or empty MIG vector; format: cell-based, human; settings: 20 μM, p = 0.003
# Experimental: (§1) Cells were resuspended and plated at a concentration of 2 × 10^5 cells in 200 μl in 96-well tissue culture plates. Media with peptides was replaced every 48 h. To assess the number of viable cells, cells were resuspended in PBS and 10 µl of suspension was mixed in a 1:1 ratio with 0.4% Trypan Blue (Thermo Fisher) and counted using a hemacytometer (Hausser Scientific, Horsham, PA, USA). To assess viability using an ATP-based assay, cell viability was assessed using the CellTiter-Glo Luminescent Viability assay, according to the manufacturer’s instructions (Promega). Luminescence was recorded using the Infinite M1000Pro plate reader using integration time of 250 ms (Tecan).
# The MIG-BCL2 vector was packaged using pUMVc and pCMV-VSVG vectors in HEK 293T cells and the FuGENE 6 transfection reagent, according to manufacturer’s instructions (Promega). Virus supernatant was collected at 48 and 72 h post transfection, pooled, filtered and stored at −80 °C. Cells were transduced with virus particles at a multiplicity of infection of 1 by spin inoculation for 90 min at 3500 rpm at 35 °C in the presence of 8 μg/ml hexadimethrine bromide. Two days after transduction, cells were isolated using fluorescence-activated cell sorting (FACSAria III, BD Bioscience, San Jose, CA, USA).
# [6] = system: MOLM-13, MV-411, ML-2 and HL-60 cells; assay: Cell viability of AML cell lines; format: cell-based, human; settings: 6 days, 20 μM TG1, TG2 or TG3, 10 and 20 μM MYBMIM, peptide replacement every 48 h, compared to untreated control
# Experimental: as §1
# T1 sequence (P45481 586-665 limits assumed): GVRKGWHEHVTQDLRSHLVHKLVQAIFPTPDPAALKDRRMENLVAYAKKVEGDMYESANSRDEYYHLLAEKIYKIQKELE
smiles,measurement,setting,value
CC[C@@H](C)[C@@H](NC(=O)[C@@H](CCCCN)NC(=O)[C@@H](CCC(=O)O)NC(=O)[C@@H](CC(C)C)NC(=O)[C@@H](CCC(=O)O)NC(=O)[C@@H](CC(C)C)NC(=O)[C@@H](CC(C)C)NC(=O)CNC(=O)[C@@H](CCSC)NC(=O)[C@@H](CO)NC(=O)[C@H](NC(=O)[C@@H](CCC(=O)O)NC(=O)[C@@H](CC(N)=O)NC(=O)CNC(=O)[C@@H](CC(C)C)NC(=O)[C@@H](CCCCN)NC(C)=O)[C@H](C)O)C(=O)NCC(=O)N[C@H](CCCCN)C(=O)NCC(=O)NCC(=O)N[C@H](CCCNC(=N)N)C(=O)N[C@H](CCCNC(=N)N)C(=O)N[C@H](CCCNC(=N)N)C(=O)N[C@H](CCC(N)=O)C(=O)N[C@H](CCCNC(=N)N)C(=O)N[C@H](CCCNC(=N)N)C(=O)N[C@H](CCCCN)C(=O)N[C@H](CCCCN)C(=O)N[C@H](CCCNC(=N)N)C(=O)NCC(=O)N[C@H](Cc1ccc(O)cc1)C(N)=O [TG3] (Ac-[dK][dL]G[dN][dE][dT][dS][dM]G[dL][dL][dE][dL][dE][dK][dI]G[dK]GG[dR][dR][dR][dQ][dR][dR][dK][dK][dR]G[dY]-NH2),MYB complexes bound to promoters and enhancers eliminated,[1],inactive
same,BCL2 expression downregulation,[2],not
same,Kd,[3],113 ± 36.6 µM
same,Changes in gene expression as compared to mock-treated cells,[4],no significant changes in gene expression
same,Cell growth and survival of mock-treated and MIG empty vector control transduced MV-411 cells,[5],inactive
same,Growth of AML cell lines,[6],inactive
